Structures are written as SMILES.

Results on 2 compounds are retold here after patent US20080214844A1, “Icaritin and desmethylicaritin as anti-cancer agents” (priority 2007, published 2008).

In test [1] the test system is hepatoma or leukemia cell lines. Particulars: other studies; cited from earlier work.
For test [2], the system named is highly metastatic human lung cancer cells (PG). Particulars: PG cells in vitro; cited from earlier work.
Test [3] has as its system ACHN. The test is described as follows: MTT cell viability assay, ACHN. Format: cell-based, human. Particulars: Kidney, 3 days culture. The protocol: (§1) 26 cancer cell lines were grown in normal growth medium in the presence of different concentrations Icaritin or Desmethylicaritin. After culture for 3 days, the cell viability was then measured by an MTT assay. […] Some EC50s were lower than 10 uM for these two compounds. […] Whereas, normal human mammary gland epithelial cells (MCF10A) were not sensitive to Icaritin and Desmethylicaritin. These cells grew well when treated with these two compounds at a concentration of 50 uM.
A general note: Tetrazolium dyes change colour on reduction, which living cells bring about.

Test [4] relates to AU-565. The test is described as follows: MTT cell viability assay, AU-565. The following applies: AU-565, Breast, 3 days culture. In kind it is cell-based, human. On the procedure: as §1
For test [5], the system named is FAS protein levels in LNCaP cells. In words: Western blot analysis for FAS protein levels. Format: cell-based, human.
Test [6] deals with Widr. The test is described as follows: MTT cell viability assay, Widr. In kind it is cell-based, human. The following applies: Colon, 3 days culture. The protocol:
as §1

In test [7] the test system is Caki-1. The test is described as follows: MTT cell viability assay, Caki-1. Format: cell-based, human. Particulars: Caki-1, Kidney, 3 days culture. The protocol:
as §1

Test [8] relates to PC3. The test is described as follows: MTT cell viability assay, PC3. Particulars: PC3, Prostate, 3 days culture. Format: cell-based, human. The protocol:
as §1

Test [9] has as its system Raji. The test is described as follows: MTT cell viability assay, Raji. Format: cell-based, human. The following applies: Lymphoma, 3 days culture. On the procedure:
as §1

The subject of test [10] is SK-MEL-5. In words: MTT cell viability assay, SK-MEL-5. Format: cell-based, human. Particulars: SK-MEL-5, Skin, 3 days culture. The protocol: as §1
Test [11] deals with U-251. In words: MTT cell viability assay, U-251. In kind it is cell-based, human. The following applies: U-251, Glioblastoma, 3 days culture. The protocol: as §1
The subject of test [12] is Jurkat T cell. The test is described as follows: MTT cell viability assay, Jurkat T cell. In kind it is cell-based, human. The following applies: Leukemia, 3 days culture. The protocol:
as §1

The subject of test [13] is Mid PaCa-2. In words: MTT cell viability assay, Mid PaCa-2. In kind it is cell-based, human. The following applies: Mid PaCa-2, Pancreas, 3 days culture. On the procedure:
as §1

Test [14] concerns estrogen receptor. Particulars: mediated by the estrogen receptor; cited from earlier work.
The subject of test [15] is HT29. The test is described as follows: MTT cell viability assay, HT29. Format: cell-based, human. The following applies: HT29, Colon, 3 days culture. On the procedure:
as §1

In test [16] the test system is MDA-MB-435. The test is described as follows: MTT cell viability assay, MDA-MB-435. Format: cell-based, human. The following applies: MDA-MB-435, Breast, 3 days culture. On the procedure: as §1
The test system of test [17] is HCT-116. In words: MTT cell viability assay, HCT-116. In kind it is cell-based, human. The following applies: HCT-116, Colon, 3 days culture. The protocol: as §1
Test [18] has as its system G-361. The test is described as follows: MTT cell viability assay, G-361. In kind it is cell-based, human. Particulars: G-361, Skin, 3 days culture. On the procedure:
as §1

The test system of test [19] is NCI-H23. The test is described as follows: MTT cell viability assay, NCI-H23. Format: cell-based, human. The following applies: NCI-H23, Lung, 3 days culture. The protocol:
as §1

Test [20] has as its system MCF-10a. The test is described as follows: MTT cell viability assay, MCF-10a normal breast epithelial cells. Format: cell-based, human. The protocol: as §1
The subject of test [21] is MDA-MB-231. The test is described as follows: MTT cell viability assay, MDA-MB-231. In kind it is cell-based, human. Particulars: MDA-MB-231, Breast, 3 days culture. On the procedure:
as §1

Test [22] has as its system 786-O. The test is described as follows: MTT cell viability assay, 786-O. In kind it is cell-based, human. Particulars: Kidney, 3 days culture. The protocol:
as §1

Test [23] has as its system CCL-247. In words: MTT cell viability assay, CCL-247. Format: cell-based, human. Particulars: CCL-247, Colon, 3 days culture. On the procedure:
as §1

Test [24] has as its system D145. The test is described as follows: MTT cell viability assay, D145. In kind it is cell-based, human. Particulars: D145, Prostate, 3 days culture. The protocol: as §1
In test [25] the test system is SKOV3. The test is described as follows: MTT cell viability assay, SKOV3. In kind it is cell-based, human. Particulars: SKOV3, Ovary, 3 days culture. On the procedure:
as §1

Test [26] relates to SN12C. The test is described as follows: MTT cell viability assay, SN12C. In kind it is cell-based, human. The following applies: Kidney, 3 days culture. On the procedure: as §1
In test [27] the test system is A549. The test is described as follows: MTT cell viability assay, A549. The following applies: A549, Lung, 3 days culture. Format: cell-based, human. The protocol:
as §1

Test [28] relates to MCF-7. The test is described as follows: MTT cell viability assay, MCF-7. Format: cell-based, human. Particulars: MCF-7, Breast, 3 days culture. The protocol:
as §1

Test [29] has as its system BT-549. The test is described as follows: MTT cell viability assay, BT-549. In kind it is cell-based, human. Particulars: BT-549, Breast, 3 days culture. The protocol: as §1
The test system of test [30] is LNCaP cells and MDA-MB-231 cells. In words: Synthesis of lipid classes in cancer cells. In kind it is cell-based, human. The protocol:
Icaritin and Desmethylicaritin decrease Lipogenesis in Prostate and Breast Cancer cells via inhibition of fatty acid synthase (FAS) Activity. Protein extracts from LNCaP cells, which had been ^14C-labeled with malonyl-CoA, were pretreated with these two compounds. A concentration of 0.5 μM Icaritin or Desmethylicaritin reduced the in vitro enzymatic FAS activity to less than 50%. […] Consistent with their FAS inhibitory effect, inhibition of lipogenesis by Icaritin and Desmethylicaritin affected the synthesis of phospholipids (including phosphatidylcholine, phosphatidylethanolamine, phosphatidylinositol, phosphatidylserine, and sphingomyelin) and of triglycerides in LNCaP cells and MDA-MB-231 cells. […] Cholesterol synthesis, however, accounts for less than 10% of the total lipogenic activity in LNCaP and MDA-MB-231 cancer cells, whereas ˜75 and 15% of the lipogenic activity in these cells represents phospholipid and triglyceride synthesis, respectively.

In test [31] the test system is CCL-225. The test is described as follows: MTT cell viability assay, CCL-225. In kind it is cell-based, human. Particulars: CCL-225, Colon, 3 days culture. The protocol:
as §1

For test [32], the system named is IGROV1. In words: MTT cell viability assay, IGROV1. Format: cell-based, human. The following applies: IGROV1, Ovary, 3 days culture. On the procedure: as §1
Test [33] relates to LNCAP. The test is described as follows: MTT cell viability assay, LNCAP. Format: cell-based, human. The following applies: Prostate, 3 days culture. On the procedure:
as §1

The test system of test [34] is LoVo. The test is described as follows: MTT cell viability assay, LoVo. Format: cell-based, human. Particulars: Colon, 3 days culture. On the procedure:
as §1

For `COc1ccc(-c2oc3c(CC=C(C)C)c(O[C@@H]4O[C@H](CO)[C@@H](O)[C@H](O)[C@H]4O)cc(O)c3c(=O)c2O[C@@H]2O[C@@H](C)[C@H](O)[C@@H](O)[C@H]2O)cc1` [ICA, Icariin], the “inhibition of hepatoma or leukemia cell lines” value in [1] is “no inhibition”. In addition, in test [2], the “PG cells adhesive ratio to laminin substrate” value was “decreased”, the “ability of invasion or migration” value is recorded as “decreased”, the cAMP/cGMP ratio entry is on record as “increased” and the “distribution of PG cells cycle” value was “reduce S phase”. In addition, in test [2], the “expression of membrane HLA-ABC antigen” value is on record as “increase”, the “level of cAMP in PG cells” value is recorded as “increased”, the “level of cGMP” value is “reduced” and the “membrane fluidity of PG” value is “enhance”.
Usually IC50 stands for the concentration needed to halve the response being measured. High values mean weaker potency, low ones greater potency. As for `CC(C)=CCc1c(O)cc(O)c2c(=O)c(O)c(-c3ccc(O)cc3)oc12` [Desmethylicaritin], the IC50 in [3] came out at 9.7 µM; in test [4], 8.9 µM; in test [6], 11.3 µM; in [7], 7.5 µM; in test [8] it was 10.6 µM; in test [9], 5.2 µM. The IC50 in test [10] stood at 10.8 µM; in [11] it was 7.3 µM; in test [12] it was 4.9 µM; in test [13], 8.6 µM; in test [15], 16.8 µM; in test [16], 12.7 µM. Besides, the IC50 in test [17] is 6.9 µM; in [18], 7.4 µM; in test [19], 6.5 µM; in [20] (MCF-10a, Normal breast epithelial cells, 3 days culture, MTT), over 50 µM; in [21], 6.5 µM; in [22] it was 10.9 µM. The IC50 in test [23] came out at 17.6 µM; in test [24], 9.8 µM; in test [25], 10.4 µM; in test [26], 15.9 µM; in test [27], 10.7 µM; in test [28], 24.8 µM. Also, the IC50 in test [29] was determined as 9.6 µM; in test [31], 8.9 µM; in test [32] it was 11.2 µM; in test [33], 6.1 µM; in test [34], 10.5 µM. For the same compound, the “FAS protein levels (Western blot)” value in test [5] is on record as “did not influence”. Further, in test [14], the estrogenic effect entry was “week phytoestrogens”. Moreover, the “sensitivity of normal human mammary gland epithelial cells (MCF10A)” value in [20] (cells grew well at 50 uM) is “not sensitive”. Moreover, in test [30] (LNCaP and MDA-MB-231 cells), the synthesis of cholesterol entry is “decreased”. Further, the “synthesis of phospholipids and of triglycerides” value in test [30] (LNCaP cells and MDA-MB-231 cells) is given as “affected”.
